Results from article PMC10820468, “Novel Dihydrocoumarins Induced by Radiolysis as Potent Tyrosinase Inhibitors” (Molecules, 2024).
Values belong to the compound of their own block, whether it stands above or below them.

Assays:
[1] = biological target: mushroom tyrosinase; test: Mushroom tyrosinase inhibition assay (L-DOPA substrate, DOPA chrome at 470 nm); assay type: biochemical; settings: 37 °C, 30 min, pH 6.8, triplicate
Experimental: The tyrosinase inhibition assay was achieved according to a previously described method. Both the enzyme (tyrosinase, EC 1.14.18.1) and substrate (L-3,4-dihydroxyphenylalanine) (L-DOPA) were purchased from Sigma-Aldrich. All test compounds were first dissolved in 5% dimethyl sulfoxide (DMSO) (80 μL), and the tyrosinase inhibitory activity was evaluated at various concentrations (5 to 200 μM). The reaction mixture consisted of 40 μL of tyrosinase solution (125 unit/mL in 67 mM phosphate buffer, pH 6.8), 40 μL of L-DOPA (25 mM in 67 mM phosphate buffer, pH 6.8), and 80 μL of the test sample. After incubation at 37 °C for 30 min, the amount of released DOPA chrome was measured at 470 nm using an ELISA reader (Infinite F200, Tecan Austria GmBH, Grodig, Austria). The tyrosinase inhibition (%) was calculated, and the half-maximal inhibitory concentration (IC50) was evaluated using linear regression analysis of the inhibitory effects under the assay conditions. […] All assays were carried out in triplicate. Kinetic parameters were determined using the Lineweaver-Burk plots methods at increasing concentration of substrates and inhibitor. The data was calculated using Sigma-plot (SPCC Inc., Chicago, IL, USA).

[2] = test system: mushroom tyrosinase; test: Inhibition kinetics of tyrosinase-mediated L-DOPA oxidation (Lineweaver-Burk plots); assay type: biochemical
Description: Tyrosinase is a metalloenzyme that plays a primary role in the production of melanin from tyrosine when the skin is exposed to UV rays. Tyrosinase-related protein-1 (TRP-1) and dopachrome tautomerase (TRP-2) result in the formation of melanin as eumelanin (which appears black and brown) and pheomelanin (which appears yellow and red). Tyrosinase is present in epidermal melanocytes as well as in the pigment epithelia of the retina, iris, and ciliary body of the eye, and is one of the chief enzymes responsible for skin pigmentation in mammals. Melanin production can be inhibited by suppressing tyrosinase activity, thereby preventing the induction of melasma, freckles, and senile […]. […] Radiocatalytic hydrogenated molecules 1–4 obtained in the present study were evaluated for their inhibitory capacities toward mushroom tyrosinase. […]
The tyrosinase inhibition assay was achieved according to a previously described method. […] All test compounds were first dissolved in 5% dimethyl sulfoxide (DMSO) (80 μL), and the tyrosinase inhibitory activity was evaluated at various concentrations (5 to 200 μM). […] After incubation at 37 °C for 30 min, the amount of released DOPA chrome was measured at 470 nm using an ELISA reader (Infinite F200, Tecan Austria GmBH, Grodig, Austria). […] The data was calculated using Sigma-plot (SPCC Inc., Chicago, IL, USA).

Structure (SMILES): O=C1Oc2cc(O)ccc2[C@@](CO)(CCO)[C@@H]1CO (relative stereo) [Compound 3, Radiocoumarone C]
IC50 [1]: 254.6 ± 2.1 µM

Structure (SMILES): Cc1cc(=O)oc2cc(O)ccc12 [4-MUF (5), 4-methylumbelliferone, reference compound]
IC50 [1]: > 500 µM

Structure (SMILES): C[C@@]1(CO)CC(=O)Oc2cc(O)ccc21 (stereo in doubt) [Compound 1, Radiocoumarone A]
IC50 [1]: 143 ± 1.5 µM

Compounds with a lower IC50 [1], results first:

IC50 [1]: 49 ± 1.3 µM
Structure (SMILES): C[C@]1(CO)c2ccc(O)cc2OC(=O)[C@H]1CO (relative stereo) [Compound 2, Radiocoumarone B]

IC50 [1]: 19.8 ± 0.5 µM | Inhibition Type [2]: Non-competitive | Ki [2]: 16 µM
Structure (SMILES): C[C@]1([C@@]2(C)c3ccc(O)cc3OC(=O)[C@H]2CO)c2ccc(O)cc2OC(=O)[C@H]1CO (relative stereo) [Compound 4, Radiocoumarone D]
